Results published in article PMC3177827 (PLoS ONE, 2011).
“Also recorded” adds a separate entry of the source. The star is where a group is joined. pNA = O=[N+]([O-])c1ccc(N*)cc1; Cbz = O=C(OCc1ccccc1)*

Tests used:
[1] = mixed human dental plaque bacteria; details: cited from earlier work
[2] = bacterial suspension in saliva ion buffer (OD620 1.2); details: up to 24 h
[3] = Whole plaque (Mixture of bacteria) suspension in saliva ion buffer; details: human, up to 24 h
[4] = WSA-8 (Rothia aeria HOT-188) bacterial suspension in saliva ion buffer; details: up to 24 h
[5] = WSA-26 (Rothia mucilaginosa HOT-681) bacterial suspension in saliva ion buffer; details: up to 24 h
[6] = WSA-2B (Rothia mucilaginosa HOT-681) bacterial suspension in saliva ion buffer; details: up to 24 h
[7] = WSA-7A (Streptococcus mitis HOT-677) bacterial suspension in saliva ion buffer; details: up to 24 h
[8] = WSAN-25 (Veilonella atypica HOT-524) bacterial suspension in saliva ion buffer; details: up to 24 h
[9] = PAN-5 (Bifidobacterium dentium HOT-588) bacterial suspension in saliva ion buffer; details: up to 24 h
[10] = PAN-8 (Bifidobacterium dentium HOT-588) bacterial suspension in saliva ion buffer; details: up to 24 h
[11] = PAN-0 (Streptococcus pneumoniae HOT-734) bacterial suspension in saliva ion buffer; details: up to 24 h
[12] = PAN-18 (Bifidobacterium dentium HOT-588) bacterial suspension in saliva ion buffer; details: up to 24 h
[13] = PAN-19 (Bifidobacterium dentium HOT-588) bacterial suspension in saliva ion buffer; details: up to 24 h
[14] = PAN-23 (Bifidobacterium dentium HOT-588) bacterial suspension in saliva ion buffer; details: up to 24 h
[15] = WSAN-14 (Bifidobacterium longum HOT-B54) bacterial suspension in saliva ion buffer; details: up to 24 h
[16] = WSAN-16 (Bifidobacterium longum HOT-B54) bacterial suspension in saliva ion buffer; details: up to 24 h
[17] = WSAN-24 (Bifidobacterium longum HOT-B54) bacterial suspension in saliva ion buffer; details: up to 24 h
[18] = WSA-10 (Staphylococcus epidermidis HOT-601) bacterial suspension in saliva ion buffer; details: up to 24 h
[19] = mammalian enzymes; details: cited from earlier work
[20] = system: pepsin; assay: pepsin (1 µg/ml in 0.1 M HCl, pH 1.0); details: up to 24 h
[21] = system: trypsin; assay: trypsin (1 µg/ml in 50 mM ammonium bicarbonate, pH 8.0); details: up to 24 h
[22] = strain WSA-8 (R. aeria) in saliva ion buffer (OD620 1.2, pH 7.0); details: Rothia aeria, up to 5 h
[23] = system: chymotrypsin; assay: chymotrypsin (1 µg/ml in 50 mM ammonium bicarbonate, pH 8.0); details: up to 24 h
[24] = Bifidobacterium dentium HOT-588 (strain PAN-5)
[25] = Bifidobacterium dentium HOT-588 (strain PAN-8)
[26] = Bifidobacterium dentium HOT-588 (strain PAN-18)
[27] = Bifidobacterium dentium HOT-588 (strain PAN-19)
[28] = Bifidobacterium dentium HOT-588 (strain PAN-23)
[29] = Bifidobacterium longum HOT-B54 (strain WSAN-14)
[30] = Bifidobacterium longum HOT-B54 (strain WSAN-16)
[31] = Bifidobacterium longum HOT-B54 (strain WSAN-24)
[32] = Rothia aeria HOT-188 (strain WSA-8)
[33] = Rothia mucilaginosa HOT-681 (strain WSA-2B)
[34] = Rothia mucilaginosa HOT-681 (strain WSA-26)
[35] = Staphylococcus epidermidis HOT-601 (strain WSA-10)
[36] = Streptococcus mitis HOT-677 (strain WSA-7A)
[37] = Streptococcus pneumoniae HOT-734 (strain PAN-0)
[38] = Veilonella atypica HOT-524 (strain WSAN-25)

Substance	cleaved bond [1]	not cleaved [2, 24]	not cleaved [2, 25]	not cleaved [2, 26]	not cleaved [2, 27]	not cleaved [2, 28]	not cleaved [2, 29]	not cleaved [2, 30]	not cleaved [2, 31]	not cleaved [2, 32]	not cleaved [2, 33]	not cleaved [2, 34]	not cleaved [2, 35]	not cleaved [2, 36]	not cleaved [2, 37]	not cleaved [2, 38]	cleaved bond [3]	not cleaved [4]	not cleaved [5]	not cleaved [6]	other results
Cbz-Gln-Gln-Pro-pNA	P-pNA	− after 24 h	− after 24 h	− after 24 h	− after 24 h	− after 24 h	− after 24 h	− after 24 h	− after 24 h	− (not cleaved) after 24 h	− (not cleaved) after 24 h	− (not cleaved) after 24 h	− after 24 h	− after 24 h	− after 24 h	− after 24 h	P-pNA	− after 24 h incubation	− after 24 h incubation	− after 24 h incubation	not cleaved [7]: − after 24 h incubation; not cleaved [8]: − after 24 h incubation; not cleaved [9]: − after 24 h incubation; not cleaved [10]: − after 24 h incubation; not cleaved [11]: − after 24 h incubation; not cleaved [12]: − after 24 h incubation; not cleaved [13]: − after 24 h incubation; not cleaved [14]: − after 24 h incubation; not cleaved [15]: − after 24 h incubation; not cleaved [16]: − after 24 h incubation; not cleaved [17]: − after 24 h incubation; not cleaved [18]: − after 24 h incubation
Cbz-Lys-Pro-Gln-pNA																					cleaved bond [4]: Q-pNA; cleaved bond [6]: Q-pNA
Cbz-Pro-Phe-Pro-pNA	P-pNA	− after 24 h	− after 24 h	− after 24 h	− after 24 h	− after 24 h	− after 24 h	− after 24 h	− after 24 h	− (not cleaved) after 24 h	− (not cleaved) after 24 h	− (not cleaved) after 24 h	− after 24 h	− after 24 h	− after 24 h	− after 24 h	P-pNA	− after 24 h incubation	− after 24 h incubation	− after 24 h incubation	not cleaved [7]: − after 24 h incubation; not cleaved [8]: − after 24 h incubation; not cleaved [9]: − after 24 h incubation; not cleaved [10]: − after 24 h incubation; not cleaved [11]: − after 24 h incubation; not cleaved [12]: − after 24 h incubation; not cleaved [13]: − after 24 h incubation; not cleaved [14]: − after 24 h incubation; not cleaved [15]: − after 24 h incubation; not cleaved [16]: − after 24 h incubation; not cleaved [17]: − after 24 h incubation; not cleaved [18]: − after 24 h incubation
Cbz-Pro-Pro-Phe-pNA	F-pNA	− after 24 h	− after 24 h	− after 24 h	− after 24 h	− after 24 h	− after 24 h	− after 24 h	− after 24 h	− (not cleaved) after 24 h	− (not cleaved) after 24 h	− (not cleaved) after 24 h	− after 24 h	− after 24 h	− after 24 h	− after 24 h	F-pNA	− after 24 h incubation	− after 24 h incubation	− after 24 h incubation	not cleaved [7]: − after 24 h incubation; not cleaved [8]: − after 24 h incubation; not cleaved [9]: − after 24 h incubation; not cleaved [10]: − after 24 h incubation; not cleaved [11]: − after 24 h incubation; not cleaved [12]: − after 24 h incubation; not cleaved [13]: − after 24 h incubation; not cleaved [14]: − after 24 h incubation; not cleaved [15]: − after 24 h incubation; not cleaved [16]: − after 24 h incubation; not cleaved [17]: − after 24 h incubation; not cleaved [18]: − after 24 h incubation
FLQPQQPFPQQPQQPYPQQPQQPFPQ																					not cleaved [19]: resistant to degradation by mammalian enzymes; not cleaved [20]: resistant to degradation; sampled at t = 24 h; not cleaved [21]: resistant to degradation; sampled at t = 24 h; cleaved bond [22]: Y-P, major; not cleaved [23]: resistant to degradation; sampled at t = 24 h
LQLQPFPQPQLPYPQPQLPYPQPQLPYPQPQPF																					not cleaved [19]: resistant to degradation by mammalian enzymes; not cleaved [20]: resistant to degradation; sampled at t = 24 h; not cleaved [21]: resistant to degradation; sampled at t = 24 h; cleaved bond [22]: F-P, minor; also recorded: P-Q, minor; also recorded: Q-L, major; also recorded: Y-P, major; also recorded: Q-P, major; not cleaved [23]: resistant to degradation; sampled at t = 24 h
benzyloxycarbonyl-YPQ-paranitroanilide	Q-pNA																Q-pNA				cleaved bond [4]: Q-pNA; cleaved bond [5]: Q-pNA; cleaved bond [6]: Q-pNA; cleaved bond [7]: Q-pNA
